Columns and labels:
Assay in all cases: relative viability (nuclei count vs DMSO), 5 days (fraction); higher = more cells survive
[1] = compound: C1CC2=C(C1)C=C(C=C2)OC3=NC(=C4C(=N3)N(C=N4)CC5=CC=C(C=C5)C6=CC=CC=C6)N[C@@H](CC7=CC=CC=C7)CO [QS11] + CC(=O)Nc1cccc(-n2c(=O)n(C3CC3)c(=O)c3c(Nc4ccc(I)cc4F)n(C)c(=O)c(C)c32)c1 [Trametinib] (partner 0.02 µM)
In short: (§1)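 Lung cancer cell lines were pin-tool dosed in 1536-well plates on the day after seeding, with either a lone drug or a fixed anchor-drug dose plus five library-drug doses (not always all listed) in √10 steps. Nuclei were counted on 4× images after 5 days. Relative viability is the ratio of treated-well to vehicle-well nuclei counts, with each value a median of duplicate plates.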

[2] = compound: CC1=C(C=C(C=C1)NC(=O)C2=CC(=CC=C2)C(C)(C)C#N)NC3=CC4=C(C=C3)N=CN(C4=O)C [AZ628] + CC(=O)Nc1cccc(-n2c(=O)n(C3CC3)c(=O)c3c(Nc4ccc(I)cc4F)n(C)c(=O)c(C)c32)c1 [Trametinib] (partner 0.02 µM)
In short: as §1

[3] = compound: C[As](C)SC[C@H](NC(=O)CC[C@H](N)C(=O)O)C(=O)NCC(=O)O [Darinaparsin] + NC(=O)Nc1cc(-c2cccc(F)c2)sc1C(=O)N[C@H]1CCCNC1 [AZD7762] (partner 0.2 µM)
In short: as §1

[4] = compound: C[As](C)SC[C@H](NC(=O)CC[C@H](N)C(=O)O)C(=O)NCC(=O)O [Darinaparsin] + O=C(c1cc(Cc2n[nH]c(=O)c3ccccc23)ccc1F)N1CCN(C(=O)C2CC2)CC1 [Olaparib] (partner 8 µM)
In short: as §1

For H3255, the relative viability ([1]; first compound 0.08 µM) was 0.577, the relative viability ([1]; first compound 0.253 µM) was 0.703 and the relative viability ([1]; first compound 2.53 µM) was 0.631. The relative viability ([1]; first compound 8 µM) was 0.585, the relative viability ([2]; first compound 0.08 µM) was 0.525 and the relative viability ([2]; first compound 0.253 µM) was 0.413. It also gave a relative viability ([2]; first compound 0.8 µM) of 0.384, a relative viability ([2]; first compound 2.53 µM) of 0.401 and a relative viability ([2]; first compound 8 µM) of 0.365. It also gave a relative viability ([3]; first compound 0.08 µM) of 0.858, a relative viability ([3]; first compound 0.8 µM) of 0.915 and a relative viability ([3]; first compound 2.53 µM) of 0.797. It also gave a relative viability ([3]; first compound 8 µM) of 1.05, a relative viability ([4]; first compound 0.08 µM) of 0.644 and a relative viability ([4]; first compound 0.8 µM) of 0.518. The relative viability ([4]; first compound 2.53 µM) was 0.606 and the relative viability ([4]; first compound 8 µM) was 0.632.

Work on LOU-NH91 yielded a relative viability ([1]; first compound 0.08 µM) of 0.797, a relative viability ([1]; first compound 0.253 µM) of 0.742 and a relative viability ([1]; first compound 0.8 µM) of 0.743. It also gave a relative viability ([1]; first compound 2.53 µM) of 0.819, a relative viability ([1]; first compound 8 µM) of 0.767 and a relative viability ([2]; first compound 0.08 µM) of 0.795. It also gave a relative viability ([2]; first compound 0.253 µM) of 0.787, a relative viability ([2]; first compound 0.8 µM) of 0.713 and a relative viability ([2]; first compound 2.53 µM) of 0.726. The relative viability ([2]; first compound 8 µM) was 0.668, the relative viability ([3]; first compound 0.08 µM) was 0.808 and the relative viability ([3]; first compound 0.8 µM) was 0.745. The relative viability ([3]; first compound 2.53 µM) was 0.719, the relative viability ([3]; first compound 8 µM) was 0.775 and the relative viability ([4]; first compound 0.08 µM) was 0.932. The relative viability ([4]; first compound 0.8 µM) was 0.869, the relative viability ([4]; first compound 2.53 µM) was 0.912 and the relative viability ([4]; first compound 8 µM) was 0.964.

In the case of NCI-H2126, the relative viability ([1]; first compound 0.08 µM) was 0.588, the relative viability ([1]; first compound 0.253 µM) was 0.562 and the relative viability ([1]; first compound 0.8 µM) was 0.567. It also gave a relative viability ([1]; first compound 2.53 µM) of 0.596, a relative viability ([1]; first compound 8 µM) of 0.508 and a relative viability ([2]; first compound 0.08 µM) of 0.559. For the same cell line, the relative viability ([2]; first compound 0.253 µM) was 0.512, the relative viability ([2]; first compound 0.8 µM) was 0.498 and the relative viability ([2]; first compound 2.53 µM) was 0.562. For the same cell line, the relative viability ([2]; first compound 8 µM) was 0.481, the relative viability ([3]; first compound 0.08 µM) was 1.14 and the relative viability ([3]; first compound 0.8 µM) was 1.03. It also gave a relative viability ([3]; first compound 2.53 µM) of 0.917, a relative viability ([3]; first compound 8 µM) of 1.14 and a relative viability ([4]; first compound 0.08 µM) of 0.986. The relative viability ([4]; first compound 0.8 µM) was 0.886, the relative viability ([4]; first compound 2.53 µM) was 0.84 and the relative viability ([4]; first compound 8 µM) was 1.12.

PC-14 showed a relative viability ([1]; first compound 0.253 µM) of 0.66, a relative viability ([1]; first compound 0.8 µM) of 0.698 and a relative viability ([1]; first compound 2.53 µM) of 0.717. It also gave a relative viability ([1]; first compound 8 µM) of 0.634, a relative viability ([2]; first compound 0.08 µM) of 0.441 and a relative viability ([2]; first compound 0.253 µM) of 0.301. For the same cell line, the relative viability ([2]; first compound 0.8 µM) was 0.205, the relative viability ([2]; first compound 2.53 µM) was 0.178 and the relative viability ([2]; first compound 8 µM) was 0.195. For the same cell line, the relative viability ([3]; first compound 0.08 µM) was 0.481, the relative viability ([3]; first compound 0.8 µM) was 0.361 and the relative viability ([3]; first compound 2.53 µM) was 0.422. The relative viability ([3]; first compound 8 µM) was 0.379, the relative viability ([4]; first compound 0.08 µM) was 0.234 and the relative viability ([4]; first compound 0.8 µM) was 0.261. The relative viability ([4]; first compound 2.53 µM) was 0.222 and the relative viability ([4]; first compound 8 µM) was 0.225.

For EMC-BAC-2, the relative viability ([1]; first compound 0.08 µM) was 0.814, the relative viability ([1]; first compound 0.253 µM) was 0.954 and the relative viability ([1]; first compound 0.8 µM) was 0.573. For the same cell line, the relative viability ([1]; first compound 2.53 µM) was 0.885, the relative viability ([1]; first compound 8 µM) was 0.804 and the relative viability ([2]; first compound 0.08 µM) was 0.588. The relative viability ([2]; first compound 0.253 µM) was 0.442, the relative viability ([2]; first compound 0.8 µM) was 0.416 and the relative viability ([2]; first compound 2.53 µM) was 0.365. For the same cell line, the relative viability ([2]; first compound 8 µM) was 0.43, the relative viability ([3]; first compound 0.08 µM) was 1.18 and the relative viability ([3]; first compound 0.8 µM) was 1.04. For the same cell line, the relative viability ([3]; first compound 2.53 µM) was 1.28, the relative viability ([3]; first compound 8 µM) was 1.26 and the relative viability ([4]; first compound 0.08 µM) was 0.475. For the same cell line, the relative viability ([4]; first compound 0.8 µM) was 0.447, the relative viability ([4]; first compound 2.53 µM) was 0.614 and the relative viability ([4]; first compound 8 µM) was 0.461.

In the case of HCC-78, the relative viability ([1]; first compound 0.08 µM) was 0.771, the relative viability ([1]; first compound 0.253 µM) was 0.765 and the relative viability ([1]; first compound 0.8 µM) was 0.643. It also gave a relative viability ([1]; first compound 2.53 µM) of 0.883, a relative viability ([1]; first compound 8 µM) of 0.781 and a relative viability ([2]; first compound 0.08 µM) of 0.613. It also gave a relative viability ([2]; first compound 0.253 µM) of 0.424, a relative viability ([2]; first compound 0.8 µM) of 0.377 and a relative viability ([2]; first compound 2.53 µM) of 0.375. The relative viability ([2]; first compound 8 µM) was 0.46, the relative viability ([3]; first compound 0.08 µM) was 0.587 and the relative viability ([3]; first compound 0.8 µM) was 0.706. It also gave a relative viability ([3]; first compound 2.53 µM) of 0.58, a relative viability ([3]; first compound 8 µM) of 0.699 and a relative viability ([4]; first compound 0.08 µM) of 0.884. For the same cell line, the relative viability ([4]; first compound 0.8 µM) was 0.712, the relative viability ([4]; first compound 2.53 µM) was 0.851 and the relative viability ([4]; first compound 8 µM) was 0.955.

Work on SK-LU-1 yielded a relative viability ([1]; first compound 0.08 µM) of 0.443, a relative viability ([1]; first compound 0.253 µM) of 0.508 and a relative viability ([1]; first compound 0.8 µM) of 0.441. For the same cell line, the relative viability ([1]; first compound 2.53 µM) was 0.522, the relative viability ([1]; first compound 8 µM) was 0.55 and the relative viability ([2]; first compound 0.08 µM) was 0.325. The relative viability ([2]; first compound 0.253 µM) was 0.323, the relative viability ([2]; first compound 0.8 µM) was 0.257 and the relative viability ([2]; first compound 2.53 µM) was 0.248. It also gave a relative viability ([2]; first compound 8 µM) of 0.248, a relative viability ([4]; first compound 0.08 µM) of 0.613 and a relative viability ([4]; first compound 0.8 µM) of 0.431. It also gave a relative viability ([4]; first compound 2.53 µM) of 0.407 and a relative viability ([4]; first compound 8 µM) of 0.562.

ABC-1 showed a relative viability ([3]; first compound 0.08 µM) of 0.747, a relative viability ([3]; first compound 0.8 µM) of 0.82 and a relative viability ([3]; first compound 2.53 µM) of 0.851. It also gave a relative viability ([3]; first compound 8 µM) of 0.968, a relative viability ([4]; first compound 0.08 µM) of 1.14 and a relative viability ([4]; first compound 0.8 µM) of 0.99. For the same cell line, the relative viability ([4]; first compound 2.53 µM) was 1.02 and the relative viability ([4]; first compound 8 µM) was 1.08.

LK-2 gave a relative viability ([1]; first compound 0.08 µM) of 0.702, a relative viability ([1]; first compound 0.253 µM) of 1.03 and a relative viability ([1]; first compound 0.8 µM) of 0.778. For the same cell line, the relative viability ([1]; first compound 2.53 µM) was 0.81, the relative viability ([1]; first compound 8 µM) was 0.841 and the relative viability ([2]; first compound 0.08 µM) was 0.332. The relative viability ([2]; first compound 0.253 µM) was 0.468, the relative viability ([2]; first compound 0.8 µM) was 0.251 and the relative viability ([2]; first compound 2.53 µM) was 0.27. The relative viability ([2]; first compound 8 µM) was 0.301, the relative viability ([3]; first compound 0.08 µM) was 0.482 and the relative viability ([3]; first compound 2.53 µM) was 0.335. The relative viability ([3]; first compound 8 µM) was 0.581, the relative viability ([4]; first compound 0.08 µM) was 0.727 and the relative viability ([4]; first compound 0.8 µM) was 0.546. For the same cell line, the relative viability ([4]; first compound 2.53 µM) was 0.644 and the relative viability ([4]; first compound 8 µM) was 0.731.

NCI-H23 gave a relative viability ([1]; first compound 0.08 µM) of 0.359, a relative viability ([1]; first compound 0.253 µM) of 0.385 and a relative viability ([1]; first compound 0.8 µM) of 0.283. For the same cell line, the relative viability ([1]; first compound 2.53 µM) was 0.297, the relative viability ([1]; first compound 8 µM) was 0.318 and the relative viability ([2]; first compound 0.08 µM) was 0.178. The relative viability ([2]; first compound 0.253 µM) was 0.29, the relative viability ([2]; first compound 0.8 µM) was 0.211 and the relative viability ([2]; first compound 2.53 µM) was 0.191. For the same cell line, the relative viability ([2]; first compound 8 µM) was 0.23, the relative viability ([3]; first compound 0.08 µM) was 0.226 and the relative viability ([3]; first compound 0.8 µM) was 0.229. It also gave a relative viability ([3]; first compound 2.53 µM) of 0.23, a relative viability ([3]; first compound 8 µM) of 0.247 and a relative viability ([4]; first compound 0.08 µM) of 0.293. For the same cell line, the relative viability ([4]; first compound 0.8 µM) was 0.291, the relative viability ([4]; first compound 2.53 µM) was 0.363 and the relative viability ([4]; first compound 8 µM) was 0.331.
